Reference: PMC3740032 (Bioorganic & medicinal chemistry, 2013)
Values joined by “and” are separate entries in the source; they are usually repeats but may differ in a detail not shown here. Identical values can stand only once.

What was measured:
[1] = Prodrug aqueous stability at pH 7.4, 6.0 and 1.2; type: physicochemical
BlaC = conditions: cited from earlier work
[2] = cited from earlier work
[3] = cited from earlier work; remark: listed apart in the source

In the case of C[C@@H](O)[C@H]1C(=O)N2C(C(=O)OCOC(=O)O[C@@H]3CCc4ccccc43)=C(S[C@@H]3CN[C@H](C(=O)N(C)C)C3)[C@H](C)[C@H]12 [Compound 20, (R)-Indan-1-yloxycarbonyloxymethyl (1/R, 5S,6S)-2-{[(2S,4S)-2-(N,N-dimethylcarbamoyl)pyrrolidin-4-yl]thio}-6-[(1/R)-1-hydroxyethyl]-1-methylcarbapen-2-em-3-carboxylate], the half-life at 100 µM ([1]; buffer, pH 7.4) is reported as < 1 min.
In the case of C[C@@H](O)[C@H]1C(=O)N2C(C(=O)OCOC(=O)O[C@H]3CCCCc4ccccc43)=C(S[C@@H]3CN[C@H](C(=O)N(C)C)C3)[C@H](C)[C@H]12 [Compound 19, (S)-Benzosuber-1-yloxycarbonyloxymethyl (1R, 5S,6S)-2-{[(2S,4S)-2-(N,N-dimethylcarbamoyl)pyrrolidin-4-yl]thio}-6-[(1R)-1-hydroxyethyl]-1-methylcarbapen-2-em-3-carboxylate], the “times more stable to hydrolysis compared with 1-tetralyl (18 and 21) and 1-indanyl (17 and 20) prodrugs” value ([1]; intestinal pH) is reported as 37 times and the “times more stable to hydrolysis compared with 1-tetralyl (18 and 21) and 1-indanyl (17 and 20) prodrugs” value ([1]; physiological pH) is reported as 20 times.
In the case of CC(=O)N1C[C@@H](SC2=C(C(=O)OCOC(=O)O[C@H]3CCCCc4ccccc43)N3C(=O)[C@H]([C@@H](C)O)[C@H]3[C@H]2C)C[C@H]1C(=O)N(C)C [Compound 24a, (S)-Benzosuber-1-yloxycarbonyloxymethyl (1R,5S,6S)-2-{[(2S,4S)-1-acetyl-2-(N,N-dimethylcarbamoyl)pyrrolidin-4-yl]thio}-6-[(1R)-1-hydroxyethyl]-1-methylcarbapen-2-em-3-carboxylate], the “change in the hydrolysis rate relative to prodrug 19” value ([1]; N-acetyl derivative, aqueous buffers) is reported as “no significant change”.
With CC(OC(=O)O[C@H]1CCCCc2ccccc21)OC(=O)C1=C(S[C@@H]2CN[C@H](C(=O)N(C)C)C2)[C@H](C)[C@@H]2[C@@H]([C@@H](C)O)C(=O)N12 (stereo partly drawn) [Compound 23a, (1S,1′S/R)-Benzosuber-1-yloxycarbonyloxyethyl (1R,5S,6S)-2-{[(2S,4S)-2-(N,N-dimethylcarbamoyl)pyrrolidin-4-yl]thio}-6-[(1R)-1-hydroxyethyl]-1-methylcarbapen-2-em-3-carboxylate] the “improvement of stability relative to prodrug 19” value ([1]; 100 µM) was “about 2 fold”.
In the case of O=C(O)[C@H]1/C(=C/CO)O[C@@H]2CC(=O)N21 [clavulanate], the “inhibition of BlaC” value (BlaC) is given as “irreversibly inhibited”.
For C[C@@H](O)[C@H]1C(=O)N2C(C(=O)OCOC(=O)O[C@@H]3CCCCc4ccccc43)=C(S[C@@H]3CN[C@H](C(=O)N(C)C)C3)[C@H](C)[C@H]12 [Compound 22, (R)-Benzosuber-1-yloxycarbonyloxymethyl (1R,5S, 6S)-2-{[(2S,4S)-2-(N,N-dimethylcarbamoyl)pyrrolidin-4-yl]thio}-6-[(1R)-1-hydroxyethyl]-1-methylcarbapen-2-em-3-carboxylate], the “times more stable to hydrolysis compared with 1-tetralyl (18 and 21) and 1-indanyl (17 and 20) prodrugs” value ([1]; intestinal pH) was 37 times and the “times more stable to hydrolysis compared with 1-tetralyl (18 and 21) and 1-indanyl (17 and 20) prodrugs” value ([1]; physiological pH) was 20 times.
In the case of C[C@@H](O)[C@H]1C(=O)N2C(C(=O)O)=C(S[C@@H]3CN[C@H](C(=O)N(C)C)C3)[C@H](C)[C@H]12 [Meropenem], the oral absorption [2] is listed as “negligible” and the “Log D” value [3] is listed as < −2.5.
In the case of CC(C)OC(=O)OC(C)OC(=O)C1=C(S[C@@H]2CN[C@H](C(=O)N(C)C)C2)[C@H](C)[C@@H]2[C@@H]([C@@H](C)O)C(=O)N12 (some centres unmarked) [Compound 2], the “% of each diastereomer hydrolyzed to 1” value ([1]; physiological pH 7.4, period of 2 hours) is reported as 10% and 13%.
